Test results taken from ChEMBL document CHEMBL1201862, “PubChem BioAssay data set” (2004).
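In this assay, cells in 96-well plates receive the compound at five concentrations for 48 hours. Endpoints are linearly interpolated between the surrounding concentrations. GI50 = concentration required for 50% inhibition of growth.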 The source made the active and inactive calls. No stated cut-off is given here; in the data, active = GI50 up to about 1.1 µM and inactive = higher.

Tests used:
Assay in all cases: NCI-60 cell line screen, 48 h
NCI/ADR-RES = tested on: NCI/ADR-RES
MCF7 = tested on: MCF7
HOP-62 = tested on: HOP-62
MDA-N = tested on: MDA-N
Hs-578T = tested on: Hs-578T
SR = tested on: SR
SN12C = tested on: SN12C
BT-549 = tested on: BT-549
DU-145 = tested on: DU-145
IGROV-1 = tested on: IGROV-1
MDA-MB-435 = tested on: MDA-MB-435
MDA-MB-231 = tested on: MDA-MB-231
DMS-114 = tested on: DMS-114
KM-20L2 = tested on: KM-20L2
OVCAR-5 = tested on: OVCAR-5
NCI-H23 = tested on: NCI-H23
RPMI-8226 = tested on: RPMI-8226
CAKI-1 = tested on: CAKI-1
DLD-1 = tested on: DLD-1
SK-MEL-2 = tested on: SK-MEL-2

Measured: GI50

Cc1c(N(C)C)ccc2c(=O)c3cccc(CC(=O)O)c3oc12
inactive: NCI/ADR-RES > 100 µM | MCF7 > 100 µM | HOP-62 > 100 µM | MDA-N > 100 µM | Hs-578T > 100 µM | SR > 100 µM | SN12C > 100 µM | BT-549 65.2 µM | DU-145 > 100 µM | IGROV-1 > 100 µM | MDA-MB-435 > 100 µM | MDA-MB-231 > 100 µM | DMS-114 > 100 µM | KM-20L2 > 100 µM | OVCAR-5 > 100 µM | NCI-H23 > 100 µM | RPMI-8226 > 100 µM | CAKI-1 > 100 µM | DLD-1 > 100 µM | SK-MEL-2 > 100 µM
